Earlier results as cited in US20120058097A1, “COMPOSITIONS INCLUDING A SODIUM CHANNEL BLOCKER AND A B VITAMIN MOLECULE AND METHODS OF USE THEREOF” (MS THERAPEUTICS LIMITED, priority 2010, published 2012).

Experiments:
[1] = system: people with secondary progressive multiple sclerosis
[2] = in vivo

SMILES: Nc1nnc(-c2cccc(Cl)c2Cl)c(N)n1 [lamotrigine, 3,5-diamino-6-(2,3-dichlorophenyl)-1,2,4-triaz-ine]
- deterioration of walking speed ([1]; compared to the control group, 120 people with secondary progressive multiple sclerosis): approximately halve the deterioration of walking speed
- MRI measurements of brain volume ([1]; primary outcome measure, 2 year trial): early reduction in brain volume which was reversible over the 2 year course of the trial
- half life [2]: 23 to 36 h
